Tested on: solid tumors
Test: Phase I trial, iv single administration every three weeks in patients with solid tumors
Format: in vivo
Conditions: one patient suffering from gastrointestinal sarcoma, dose level 5.1 mg/m^2, iv single administration every three weeks
Procedure: A phase I pharmacological trial was carried out to investigate the iv administration of the title compound given as a single administration every three weeks to patients with solid tumors.
The starting dose of 0.85 mg/m^2 was initially escalated in an accelerated design (100% dose increase; 1 patient/dose level) and then by a conventional dose escalation in 3-6 patient cohorts. 11 patients have been entered so far and 25 cycles have been evaluated for toxicity at dose levels of 0.85, 1.7, 3.4, 5.1 and 7.5 mg/M^2.

With C=C(Br)C(=O)Nc1cc(C(=O)Nc2cc(C(=O)Nc3cc(C(=O)Nc4cc(C(=O)NCCNC(=N)N)n(C)c4)n(C)c3)n(C)c2)n(C)c1.Cl [PNU 166196, N-(5-{[(5-{[(5-{[(2-{[amino(imino)methyl]amino}ethyl)amino]carbonyl}-1-methyl-1H-pyrrol-3-yl)amino]carbonyl}-1-methyl-1H-pyrrol-3-yl)amino]carbonyl}-1-methyl-1H-pyrrol-3-yl)-4-[(2-bromoacryloyl)amino]-11-methyl-1H-pyrrole-2-carboxamide hydrochloride] as the compound, how does the tumor response read?
The tumor response was “partial response”.

Source: US7399748B2, “Antitumor therapy comprising distamycin derivatives” (Nerviano Medical Sciences S.r.l., priority 2001, dated 2008)
